Experimental data published in patent US20100130738A1 (priority 2007, published 2010).
pIC50: −log10 of the molar value.

Columns and labels:
[1] = molecular target: T1, PDE3A catalytic domain (PDE3Acat) (Homo sapiens, UniProt Q14432); assay: Phosphodiesterase inhibitory activity, recombinant PDE3Acat, [3H]cAMP; type: biochemical; conditions: 30° C. 20 minutes, read-out: IC50 (μmol/L) PDE3
T1 construct: isolate the cDNA of a PDE3A catalytic domain; made in house; host or cells: Sf9 insect cells (baculovirus, Bac-to-Bac / Gateway)
T1 sequence (Q14432 674-1093 limits assumed): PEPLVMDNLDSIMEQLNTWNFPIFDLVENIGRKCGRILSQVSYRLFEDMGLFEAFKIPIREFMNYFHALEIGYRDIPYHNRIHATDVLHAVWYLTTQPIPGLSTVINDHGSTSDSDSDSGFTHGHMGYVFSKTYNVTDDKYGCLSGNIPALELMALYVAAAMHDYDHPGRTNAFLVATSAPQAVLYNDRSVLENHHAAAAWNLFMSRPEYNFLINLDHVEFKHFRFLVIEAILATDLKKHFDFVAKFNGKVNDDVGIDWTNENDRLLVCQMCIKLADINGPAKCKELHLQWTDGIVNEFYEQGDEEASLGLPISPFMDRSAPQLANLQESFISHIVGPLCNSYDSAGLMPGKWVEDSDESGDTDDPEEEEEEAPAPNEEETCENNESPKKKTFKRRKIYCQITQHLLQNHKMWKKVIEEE

[2] = tested on: LPS acute inflammation model in rats; assay: LPS acute inflammation model in rats (total leukocytes in BALF); type: in vivo, rat; conditions: 10 mg/kg orally one hour before LPS inhalation, BALF 3 hours after LPS inhalation
Method: 10 mg/kg of the compounds were orally administered to rats one hour before inhalation of a lipopolysaccharide from E. coli serotype 055:B5 (LPS), and the rats were made to inhale 50 ml of the LPS solution nebulized using a nebulizer for 30 minutes. Then, 3 hours after LPS inhalation, the rats were euthanized with 20% urethane (5 ml/rat, i.p.). 5 ml of physiological saline for bronchoalveolar lavage was injected into the bronchial tubes and alveoli through the airway, and the bronchial tubes and alveoli were washed three times using a 5 mL syringe. This operation was repeated twice, and the solution was collected as bronchoalveolar lavage fluid (BALF). The collected BALF was centrifuged at 1200 rpm and 4° C. for 10 minutes (Hirtachi; himac CR 5 DL). The pellet was re-suspended in 10 ml of a 0.1% bovine serum albumin-physiological saline, and an equivalent amount of Turk's solution was added thereto to stain leukocytes. The total number of leukocytes was counted under a microscope to calculate the inhibition rate. Further, the indications were as follows: inhibition rate≧80% (+++), 80%≧inhibition rate≧60% (++), and 60%>inhibition rate≧40% (+).

[3] = molecular target: T2, PDE4Bcat (Homo sapiens, UniProt Q07343); assay: Phosphodiesterase inhibitory activity, recombinant PDE4Bcat, [3H]cAMP; type: biochemical; conditions: 30° C. 20 minutes, read-out: IC50 (μmol/L) PDE4
T2 construct: made in house; host or cells: Sf9 insect cells (baculovirus, Bac-to-Bac / Gateway)
T2 sequence (Q07343 330-659 limits assumed): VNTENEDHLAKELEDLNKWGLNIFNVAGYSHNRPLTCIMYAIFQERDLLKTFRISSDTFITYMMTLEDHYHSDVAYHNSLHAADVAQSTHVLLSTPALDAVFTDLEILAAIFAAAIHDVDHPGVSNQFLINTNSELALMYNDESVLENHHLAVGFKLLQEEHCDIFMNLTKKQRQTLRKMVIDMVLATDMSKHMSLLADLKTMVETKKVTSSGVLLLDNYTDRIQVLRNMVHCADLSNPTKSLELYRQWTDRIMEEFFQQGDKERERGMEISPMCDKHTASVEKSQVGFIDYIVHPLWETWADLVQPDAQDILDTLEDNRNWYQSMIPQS

[4] = tested on: histamine-induced bronchoconstriction in guinea pigs; assay: Histamine-induced bronchoconstriction reaction in guinea pigs; type: in vivo, guinea pig; conditions: Cavia porcellus, iv, 0.5 min, compound 0.3 mg/kg i.v., measured 30 seconds after administration, histamine 12.5 μg/kg i.v., read-out: Inhibition rate (histamine-induced bronchoconstriction)
Method: Guinea pigs were anesthetized with pentobarbital (30 mg/kg, i.p.). A cannula for intravenous administration, a cannula for collecting blood and measuring blood pressure, and a tracheal cannula were inserted into the left external jugular vein, right internal carotid artery, and trachea, respectively. The guinea pigs were maintained on artificial respiration under conditions of 60 times/min and 10 mL/kg/stroke. The overflowing air from the side branch of the tracheal cannula was measured by a bronchospasm transducer (Ugo-Basile) and recorded on a computer via Power Lab (ADInstruments Japan). The guinea pigs were immobilized with gallamine (10 mg/kg, i.v.), and histamine (12.5 μg/kg, i.v.) was administered at 10-minute intervals. After the histamine-induced bronchoconstriction became stable, the compound (0.3 mg/kg, i.v.) was administered. The histamine-induced bronchoconstriction reaction was measured 30 seconds after the compound administration to examine the bronchoconstriction inhibitory activity of the compound. The bronchoconstriction was recorded as the airflow value, and the results were represented by the ratio of the maximum value of the histamine-induced airflow 30 seconds after administration to the maximum value of the airflow before administration. Also, the test compounds dissolved in DMSO were used. Further, the indications were as follows: inhibition rate≧90% (+++), 90%>inhibition rate≧80% (++), and 80%>inhibition rate≧60% (+).

SMILES	pIC50 [1]	Inhibition rate (total number of leukocytes in BALF) [2]	pIC50 [3]	Inhibition rate (total number of leukocytes in BALF) ([2]; 10 mg/kg)	inhibition in vivo at 0.3 mg/kg [4]	melting point
CCc1ccc2c(C3=NN(CCCCOc4ccc(C5=NNC(=O)CC5C)cc4F)C(=O)C3(C)C)ccc(OC)c2n1 (single isomer, unassigned; (+)) [Example 206, (+)-5-(2-Ethyl-8-methoxyquinolin-5-yl)-2-[4-[2-fluoro-4-(4-methyl-6-oxo-1,4,5,6-tetrahydropyridazin-3-yl)phenoxy]butyl]-4,4-dimethyl-2,4-dihydro-pyrazol-3-one]	6.00 to 7.00	+ (60%>inhibition rate≧40%)	7.00 to 8.00	–	–	–
CCc1ccc2c(C3=NN(CCCCOc4ccc(C5=NNC(=O)CC5C)c(F)c4F)C(=O)C3(C)C)ccc(OC)c2n1 (single isomer, unassigned; (+)) [Example 210, (+)-5-(2-Ethyl-8-methoxyquinolin-5-yl)-2-[4-[2,3-difluoro-4-(4-methyl-6-oxo-1,4,5,6-tetrahydropyridazin-3-yl)phenoxy]butyl]-4,4-dimethyl-2,4-dihydro-pyrazol-3-one]	> 8.00	–	7.00 to 8.00	+ (60%>inhibition rate≧40%)	–	–
CCc1ccc2c(C3=NN(CCCCOc4ccc(C5=NNC(=O)CC5C)cc4F)C(=O)C3(C)C)ccc(OC)c2n1 (single isomer, unassigned; (-)) [Example 207, (−)-5-(2-ethyl-8-methoxyquinolin-5-yl)-2-[4-[2-fluoro-4-(4-methyl-6-oxo-1,4,5,6-tetrahydropyridazin-3-yl)phenoxy]butyl]-4,4-dimethyl-2,4-dihydro-pyrazol-3-one]	> 8.00	+ (60%>inhibition rate≧40%)	7.00 to 8.00	–	≥ 90%	–
CCc1ccc2c(C3=NN(CCCCOc4ccc(C5=NNC(=O)CC5C)c(F)c4F)C(=O)C3(C)C)ccc(OC)c2n1 (single isomer, unassigned; (-)) [Example 211, (−)-5-(2-ethyl-8-methoxyquinolin-5-yl)-2-[4-[2,3-difluoro-4-(4-methyl-6-oxo-1,4,5,6-tetrahydropyridazin-3-yl)phenoxy]butyl]-4,4-dimethyl-2,4-dihydro-pyrazol-3-one]	> 8.00	–	7.00 to 8.00	++ (80%≧inhibition rate≧60%)	≥ 90%	–
COc1ccc(C2=NN(CCCCOc3ccc(C4=NNC(=O)C4(C)C)c(F)c3F)C(=O)C2(C)C)c2ccc(C)nc12 [Example 197, 2-[4-[2,3-Difluoro-4-(4,4-dimethyl-5-oxo-4,5-dihydro-1H-pyrazol-3-yl)phenoxy]butyl]-5-(8-methoxy-2-methylquinolin-5-yl)-4,4-dimethyl-2,4-dihydro-pyrazol-3-one]	> 8.00	+++ (inhibition rate≧80%)	7.00 to 8.00	–	≥ 90%	–
CCc1ccc2c(C3=NN(CCCCOc4ccc(C5=NNC(=O)CC5C)cc4F)C(=O)C3(C)C)ccc(OC)c2n1 (centres unmarked) [Example 205, 5-(2-Ethyl-8-methoxyquinolin-5-yl)-2-[4-[2-fluoro-4-(4-methyl-6-oxo-1,4,5,6-tetrahydropyridazin-3-yl)phenoxy]butyl]-4,4-dimethyl-2,4-dihydro-pyrazol-3-one]	> 8.00	+++ (inhibition rate≧80%)	7.00 to 8.00	–	≥ 90%	–
CCc1ccc2c(C3=NN(CCCCOc4ccc(C5=NNC(=O)CC5C)c(F)c4F)C(=O)C3(C)C)ccc(OC)c2n1 (centres unmarked) [Example 209, 5-(2-Ethyl-8-methoxyquinolin-5-yl)-2-[4-[2,3-difluoro-4-(4-methyl-6-oxo-1,4,5,6-tetrahydropyridazin-3-yl)phenoxy]butyl]-4,4-dimethyl-2,4-dihydro-pyrazol-3-one]	> 8.00	+++ (inhibition rate≧80%)	7.00 to 8.00	–	≥ 90%	–
COc1ccc(C2=NN(CCCCOc3ccc(C4=NNC(=O)CC4)c(F)c3F)C(=O)C2(C)C)c2cc(C(F)(F)F)sc12 [Example 222, 2-[4-[2,3-Difluoro-4-(6-oxo-1,4,5,6-tetrahydropyridazin-3-yl)phenoxy]butyl]-5-(7-methoxy-2-trifluoromethylbenzo[b]thiophen-4-yl)-4,4-dimethyl-2,4-dihydro-pyrazol-3-one]	> 8.00	–	6.00 to 7.00	–	–	176 to 177 °C
COc1ccc(C2=NN(CCCCOc3ccc(C4=NNC(=O)C4(C)C)c(F)c3F)C(=O)C2(C)C)c2cc(C(F)(F)F)sc12 [Example 223, 2-[4-[2,3-Difluoro-4-(4,4-dimethyl-5-oxo-4,5-dihydro-1H-pyrazol-3-yl)phenoxy]butyl]-5-(7-methoxy-2-trifluoromethylbenzo[b]thiophen-4-yl)-4,4-dimethyl-2,4-dihydro-pyrazol-3-one]	7.00 to 8.00	–	7.00 to 8.00	–	–	167 to 168 °C
COc1ccc(C2=NN(CCCCOc3ccc(C4=NNC(=O)CC4C)c(F)c3F)C(=O)C2(C)C)c2cc(C(F)(F)F)sc12 (centres unmarked) [Example 224, 2-[4-[2,3-Difluoro-4-(4-methyl-6-oxo-1,4,5,6-tetrahydropyridazin-3-yl)phenoxy]butyl]-5-(7-methoxy-2-trifluoromethylbenzo[b]thiophen-4-yl)-4,4-dimethyl-2,4-dihydro-pyrazol-3-one]	> 8.00	–	7.00 to 8.00	–	–	137 to 138 °C
